87 molecules from a melting point compilation (Tetko et al.; mined from patent text by program, amines drawn as free bases though some values may be those of a salt) can be followed below.

SMILES strings stand for the structures.

Consider `OC/C=C/c1ccc(Cc2cccnc2)cc1`, for which the melting point (commonly the temperature, or range, at which the solid turns liquid) is 81 to 82 °C.

Regarding `Cc1nc(Br)c(Br)n1Cc1cc2c(cc1Cl)OCO2`, the melting point is 185 °C.

As for `CC(C)c1nc(-c2ncn3c2[C@@H]2CCCN2C(=O)c2c(Cl)cccc2-3)no1`, the melting point lay within 195 to 196 °C.

In the case of `CCCCCCCNC(=O)N(C)c1cccc(-c2ccc(CCC(=O)O)cc2)c1`, the melting point came out at 101 °C.

Molecule `O=C(O)COc1cc(Cl)ccc1C(=O)NCc1cccc([N+](=O)[O-])c1` gave a melting point of 200 °C.

The molecule `CC1(CN2CCN(C(=O)OCc3ccccc3)CC2)Cn2cc([N+](=O)[O-])nc2O1` (configuration not stated) showed a melting point of 130 to 132 °C.

Consider `COC(=O)CCCc1cc2nc(Cl)ccc2n1S(=O)(=O)c1cccc(-c2cncs2)c1`, for which the melting point is 147 to 148 °C.

Consider `COc1c(N2CCC(n3ccnn3)C2)c(F)cc2c(=O)c(C(=O)O)cn(C3CC3)c12` (configuration not stated), for which the melting point was in the range of 200 to 201 °C.

Take `COc1ccc(Oc2ccc([N+](=O)[O-])cc2)c(Cl)c1Cl`: the melting point was 165 to 166 °C.

For `O=S(=O)(Oc1ccc2sccc2c1)c1ccccc1`, the melting point was in the range of 80 to 81 °C.

The molecule `C#CCN1CCCc2ccc(OC(=O)Nc3ccc(Cl)cc3)cc21` showed a melting point of 160 °C.

Turning to `Cc1ccc2cc(NC(=O)c3cccc(OCc4ccc(N)nc4)c3)ccc2n1`, the melting point lay within 189 to 192 °C.

Turning to `CCOC(=O)C1=C(C)Nc2nc(N3CCOCC3)nc(N3CCOCC3)c2C1c1ccncc1` (configuration not stated), the melting point is 209 °C.

For `NCC(=O)N(Nc1nncc(-c2ccccc2)n1)C(=O)OCc1ccccc1`, the melting point was 166 to 167 °C.

With `O=C1NCCN1Cc1cccnc1`, the melting point is 58 to 86 °C.

The molecule `CCOC(=O)c1cn(Cc2ccc(OCc3nc(-c4ccccc4)oc3C)cc2)nc1-c1cccs1` yielded a melting point of 113 to 114 °C.

In turn, `CS(=O)c1ncc(Cl)cn1` (configuration not stated) came in with a melting point of 48 °C.

As for `Clc1ccc(-c2coc3c(Br)cccc23)cc1Cl`, the melting point fell in the range of 158 to 160 °C.

The molecule `CN(CCN1CCCCC1)S(=O)(=O)c1cc([N+](=O)[O-])ccc1Sc1cc(Cl)cc(Cl)c1` showed a melting point of 113 to 114 °C.

`CC(=O)Nc1ncc2cc(-c3c(Cl)cccc3Cl)c(=O)n(C)c2n1`: the melting point lay within 258 to 260 °C.

For `COC(=O)C(Cc1ccccc1)Oc1ccc2cc(-c3cnc(-c4cn(Cc5ccccc5)c5ccccc45)o3)ccc2c1` (configuration not stated), the melting point lay within 188 to 190 °C.

The molecule `CCOC(=O)NNC(=O)Cc1c(C)cc(C)cc1C` registered a melting point of 184 to 186 °C.

The molecule `O=C(O)[C@@H](O)Cc1ccc(O)c([N+](=O)[O-])c1` showed a melting point of 111 °C.

`Cc1cc2c(cc1C)C(C)(C)N(Cc1ccccc1)C2(C)C` came in with a melting point of 98 to 100 °C.

For the molecule `CC1(C)CC(=O)c2c(Br)cn(-c3ccccn3)c2C1`, the melting point lay in the range of 166 to 168 °C.

Molecule `CCCCc1ncc(/C=C2\C(=O)NC(=O)N2CCC(C)C)n1Cc1ccc(C(=O)O)cc1` showed a melting point of 143 to 146 °C.

`CCOC(=O)c1csc(/C=C/C(=O)c2ccc3c(c2)C2(C)C4(C)CCC(C4)C2(C)O3)c1` (configuration not stated) showed a melting point of 149 to 151 °C.

Take `CCC(Br)=C(CC)S(=O)(=O)CBr`: the melting point was in the range of 96 to 97 °C.

`NC(=O)c1n[nH]c(-c2ccc(Cl)cc2)c1-c1ccc(S(N)(=O)=O)cc1`: the melting point fell in the range of 108 to 110 °C.

`CC(C)COC(=O)Nc1ccc(Sc2c(O)c3c(Cl)cc(Cl)cc3[nH]c2=O)cc1`: the melting point is more than 300 °C.

`CCCC(=O)c1c[nH]c2c(COC(=O)c3ccccc3)cccc2c1=O` registered a melting point of 115 to 117 °C.

Molecule `COc1ccc(-c2ccc3c(c2)C(=O)NC3=O)c2c1OCCO2` came in with a melting point of 285 to 287 °C.

Consider `C=C(C)[C@@H]1CC=C(OC(=O)C2CCC(C(=O)OC3=CC[C@@H](C(=C)C)CC3)CC2)CC1` (some centres not stated), for which the melting point was 89 °C.

In turn, `Cc1nc(NC(=O)c2ccc(F)cc2Cl)sc1C(=O)NCc1ccccc1` showed a melting point of 95 to 96 °C.

In turn, `CNc1ccc(Cl)cc1-c1nnc(C(F)(F)F)n1CC(=O)N1CCOCC1` came in with a melting point of 152 to 153 °C.

`COc1ccc2c3c([nH]c2c1)C(=S)C(CC1CCN(Cc2ccccc2)CC1)C3` (configuration not stated): the melting point was in the range of 180 to 181 °C.

With `Cc1ccc(C(=O)N[C@H]2CC[C@H](CCN3CCN(c4nccc5c4OCC5)CC3)CC2)cn1`, the melting point turned out to be 204 °C.

In turn, `CC(C)n1nc(CC(=O)c2cccc(Cl)c2)ccc1=O` came in with a melting point of 85 to 86 °C.

The molecule `COc1cc(CC(=O)N2CCN(C(=O)CNC3CCN(Cc4ccccc4)CC3)C(c3ccccc3)C2)cc(OC)c1OC` (configuration not stated) registered a melting point of 53 to 56 °C.

`COc1ccc(CCC(=O)NCCc2cccc(C)c2)cc1OC` displayed a melting point of 100 to 103 °C.

`O=c1c2cccnc2c(-c2cccc([N+](=O)[O-])c2)nn1Cc1ccccc1` had a melting point of 132 °C.

With `COC(=O)NN=C1CCCCC1=Cc1ccc(Cl)cc1`, the melting point is 160 to 162 °C.

`CC(C)(C)OC(=O)N[C@@H]1C(=O)N(C(=O)C(=O)OC(C)(C)C)[C@@H]1CCC(=O)CO[Si](C)(C)C(C)(C)C` had a melting point of 102 to 103 °C.

On to `CCn1cc(C(=O)O)c(=O)c2cc(F)c(N3CCCC(CN)C3)nc21` (configuration not stated), for which the melting point fell in the range of 120 to 122 °C.

`Cc1ccccc1/C=C/c1nc(COc2ccc(CCCCn3ccnc3CCO)cc2)co1` registered a melting point of 91 to 93 °C.

The molecule `C=C1OC(=NOC(C)=O)C(c2ccccc2)C(=O)N1C(C)(C)C(=O)Nc1cc(Cl)cc(Cl)c1` (configuration not stated) displayed a melting point of 125 to 127 °C.

In turn, `COc1ccc(C2C3=C(COC3=O)Nc3ccc4cn[nH]c4c32)cc1O` (configuration not stated) displayed a melting point of 243 to 245 °C.

Molecule `Clc1ccc(Nc2nc(-c3nccc4ccccc34)nc3ccccc23)cc1` displayed a melting point of 279 to 280 °C.

For the molecule `O=C(NCCc1ccccc1)c1ccc(Cl)nc1`, the melting point was 95 to 96 °C.

With `c1ccc(COc2ccc(NC3=NN(c4ccccc4)CC3)cc2)cc1`, the melting point lay in the range of 187 to 188 °C.

Regarding `O=[N+]([O-])c1ccc2ncccc2c1O`, the melting point is 245 °C.

`Nn1cnn(C2CCc3ccccc3C2)c1=S` (configuration not stated): the melting point was 147 to 150 °C.

For `CON(C)CCN1C(=O)c2ccccc2C1=O`, the melting point lay within 130 to 132 °C.

Consider `COc1ccc(-c2cccc(COCCc3cccc(NS(=O)(=O)C(F)(F)F)c3)c2)cc1`, for which the melting point was in the range of 88 to 90 °C.

`O=P(c1ccccc1)(c1ccccc1)c1ccccc1C1OCCO1` gave a melting point of 161 to 162 °C.

As to `C=CCC(C#N)(C#N)Cc1ccc(C#N)cc1`, the melting point was found to be 81.9 °C.

In turn, `CC(C)Oc1ccc(-n2c(C(=O)NC(C)(C)C(=O)O)c(Cl)c3cc(Oc4ccc(C(F)(F)F)cc4)ccc32)cc1` showed a melting point of 187 to 188 °C.

As for `CNc1nc(-c2cc(C)c(O)c(C)c2)cc2ccc(CN3CCN(C)CC3)cc12`, the melting point is 264 to 266 °C.

In the case of `CCOc1ccc(C(=O)CCC(=O)Nc2cc(OCCC(C)C)cc(-c3ccccc3)n2)cc1OCC`, the melting point lay in the range of 122 to 123 °C.

Take `Cc1cc(Oc2c(Cl)cc(C(F)(F)F)cc2Cl)nn1C(=O)NCCCl`: the melting point lay in the range of 116 to 118 °C.

`C#CCNc1ccc([N+](=O)[O-])cc1` had a melting point of 150 to 153 °C.

`CC1(c2ccccc2)OC(C=Cc2ccccn2)=CC1=O` (configuration not stated) showed a melting point of 74.5 to 76 °C.

Molecule `CC(C)(C)OC(=O)N1CCN(c2ccc([N+](=O)[O-])cc2)CC1` yielded a melting point of 136 to 140 °C.

With `COc1ccc(CNc2nc(NCCCc3ccc(C(C)(C)O)cc3)nc3ncccc23)cc1OC`, the melting point was 198 to 199 °C.

In the case of `COc1ccc2c(c1)C(=O)c1c-2n(CCCCl)c(=O)c2ccccc12`, the melting point lay within 195 to 198 °C.

In turn, `CCCCc1nc2c(N)nc3ccccc3c2n1CCCNC(=S)Nc1ccccc1` registered a melting point of 143 to 144 °C.

On to `O=C(O)c1c(C(O)=S)cc([N+](=O)[O-])cc1-c1ccccc1`, for which the melting point was 182 to 184 °C.

With `CC(=O)Nc1cc(C)c2c(n1)N(C1CC1)c1ncccc1C(=O)N2C(C)=O`, the melting point was 211 to 213 °C.

For `COc1ccc(Cn2c(S(=O)(=O)Cc3ccc(C)cn3)nc3cscc32)cc1`, the melting point was 148 to 150 °C.

On to `Cc1cc(-c2c(-c3ccc(S(C)(=O)=O)cc3)cnn(-c3ccc(F)c(Cl)c3)c2=O)ccc1F`, for which the melting point lay in the range of 207 to 208 °C.

In the case of `Cc1cccc2[nH]c(Nc3ccc(CC(=O)O)cc3)nc12`, the melting point fell in the range of 385 to 387 °C.

Take `COc1ccc(-c2ccc(C(=O)Nc3cc4ncc(CN5CCCC5)cc4cc3F)cc2)cc1`: the melting point lay in the range of 184 to 186 °C.

Take `CCOC(=O)Cn1c(C)cc2c1CCCC2=O`: the melting point is 101 to 104 °C.

Turning to `O=C1c2ccccc2C(O)N1CCCCCCl` (configuration not stated), the melting point lay in the range of 77 to 79 °C.

Take `CC1CCC(Oc2ccc(CC(=O)c3ccc4c(c3)CCC4)cc2)(C(=O)O)C1` (configuration not stated): the melting point is 148 to 151 °C.

For the molecule `CC1(CN2CCC(=O)CC2)Cn2cc([N+](=O)[O-])nc2O1` (configuration not stated), the melting point fell in the range of 124 to 126 °C.

`CC(=Cc1cc([N+](=O)[O-])ccc1Cl)C(=O)O` had a melting point of 228 to 230 °C.

`CCOc1ccc2c(c1)n(C1CCCCC1)c(=O)n2S(=O)(=O)c1ccc(C(=O)Nc2nccs2)cc1OC`: the melting point was found to be 213 °C.

For `COC(=O)CS(=O)(=O)Nc1ccc(F)cc1C(F)(F)F`, the melting point is 84 to 86 °C.

`O=S(=O)(c1cccc2c(Cl)cccc12)N1CC2CCC(CC2)C1` came in with a melting point of 105 to 106 °C.

Regarding `CC(C)c1ccc2c(c1)C(N1CCN(CCCO)CC1)Cc1ccc(F)cc1S2` (configuration not stated), the melting point was in the range of 106 to 108 °C.

As for `Nc1ncnc2c1cnn2Cc1oc2ccc(Br)cc2c(=O)c1-c1ccccc1`, the melting point lay in the range of 236 to 240 °C.

As for `CC(C)C(=O)c1cc(O)c(O)c([N+](=O)[O-])c1`, the melting point was in the range of 98 to 99 °C.

`CN(C)CCNC(=O)Cc1ccc2ccn(C3CCN(CCc4ccc(F)cc4)CC3)c2c1`: the melting point fell in the range of 112 to 113 °C.

As to `COc1ccc(CC2CCC3=C(CCC(=O)N3)C2)cc1` (configuration not stated), the melting point lay in the range of 176 to 177 °C.

With `COC(=O)c1ccc2c(=O)n(CC(C)C)c(CNC(=O)OC(C)(C)C)c(-c3ccc(Cl)cc3)c2c1`, the melting point lay within 205 to 207 °C.

Regarding `Nc1nc(N)nc(-c2cnc3ccccc3c2)n1`, the melting point was more than 250 °C.
